Experimental data taken from US20120164083A1, “Sweetness Enhancers Including Rebaudioside A or D” (Redpoint Bio Corporation, priority 2009, published 2012).
Values joined by “and” are separate entries in the source; they are usually repeats but may differ in a detail not shown here. Equal values may be shown once. “Also recorded” adds a separate entry of the source.

Key:
Format in all cases: in vivo, human
expert taste panel [1] = test: double-blind controlled sweetness intensity test of solutions, sequential monadic, sip and spit (Example 1 protocol); details: for sweetness of the solution compared with 7% (w/v-%) fructose solution: 300 μM in 5% (w/v-%) fructose solution; for sweetness of the solution compared with 7% (w/v-%) sucrose solution: 300 μM in 5% (w/v-%) sucrose solution, 20 judges; for mean sweetness intensity score: scale 0 to 8
expert taste panel [2] = test: double-blind controlled sweetness intensity test of enhancer combinations, taste and swallow (Example 12 protocol); details: 5% (w/v-%) sucrose solution alone; scale 0 to 8
Description: The sweetness enhancing effect of the combination of 40 μM Reb A (purity>95%) and 300 μM Reb C (Chromadex, CA; purity 94.9%; 2.9% impurities other than water) on 5% (w/v-%) sucrose solution was evaluated in a double-blind controlled test conducted according to the following protocol. Four products were evaluated by trained judges as follows: • low concentration sucrose (5% w/v) • low concentration sucrose+sweetness enhancer 1 (40 μM Reb A) • low concentration sucrose+sweetness enhancer 2 (300 μM Reb C) • low concentration sucrose+sweetness enhancer 1+sweetness enhancer 2
The products were evaluated using a sequential monadic test protocol. Subjects were given three 10 ml samples to evaluate. Each subject was directed to taste and swallow each sample and then assess the sweetness intensity of the sample. The intensity was rated on a score card by marking a numerical value along a scale from 0 to 8 (e.g., 0=none, 2=slight, 4=definite, 8=very strong). Following the decision regarding the sweetness intensity, subjects were instructed to vigorously rinse their mouth with water. Subjects then were given unsalted crackers to cleanse the palate. […] A second sample was then presented and evaluated as above and the same procedure was followed until all three products were evaluated. […]

panelists = test: quantitative flavor profile by trained panelists (Example 11)
Description: The taste of 150, 300, and 600 μM Reb C was evaluated by a test group. 10 panelists were trained over a period of a few weeks to provide a quantitative flavor profile of Reb C. Panelists first were trained using standard tastants representing the different taste modalities given in FIG. 10 (i.e., sweet, bitter, salt, sour, and licorice). They then were trained to use the scales when flavors were mixed together. All intensity ratings are on scales ranging from 0 (no taste) to 8 (highest intensity). The intensity rating for sweet is essentially the same as used in Examples 1 and 6. The taste profiles were obtained for 150, 300, and 600 μM Reb C. Reb A (0.2 mg/ml, a concentration used in some food/beverage applications for sweetening) was also evaluated in the test for comparison. The scale is not linear at the bottom. A rating of 1 is around the threshold for sweetness detection.

subjects = test: qualitative taste evaluation of Reb C water solutions (forced-choice and open report, Example 3); details: for qualitative taste description: one line per subject
Description: Subjects were asked to sip most or all of the 10 ml from the first cup, swish the liquid in their oral cavity, and expectorate into a cup, then rinse their mouths vigorously with water. Soon thereafter, the contents of the second cup were sampled in the same manner. Then, subjects were asked to choose the sweeter of the two samples, or if not sweet, to describe the qualitative taste profile of the sample having a detectable taste. […] The subjects have the following qualitative taste descriptions: […]

expert taste panel [3] = test: double-blind controlled sweetness intensity test in iced tea, taste and swallow (Example 6 protocol)
Description: The sweetness enhancing effect of 300 μM Reb C (Chromadex, CA; purity 94.9%; […]) (equivalent to the sweetness intensity of an 8% (w/v-%) sucrose solution) was evaluated in a double-blind controlled test conducted according to the following protocol. Three products were evaluated by trained judges as follows: • high concentration HFCS (14.29% w/v; equivalent to 11% w/v sucrose solution) • low concentration HFCS (10.39% w/v; equivalent to 8% w/v sucrose solution) • low concentration HFCS+sweetness enhancer (test compound)
The products were evaluated using a sequential monadic test protocol. Subjects were given three 10 ml samples to evaluate. Each subject was directed to taste and swallow each sample and then assess the sweetness intensity of the sample. The intensity was rated on a score card by marking a numerical value along a scale from 0 to 8 (e.g., 0=none, 2=slight, 4=definite, 8=very strong). Following the decision regarding the sweetness intensity, subjects were instructed to vigorously rinse their mouth with water. Subjects then were given unsalted crackers to cleanse the palate. A period of 10 minutes elapsed between presentations of each sample to reduce the potential influence of residual taste effects. A second sample was then presented and evaluated as above and the same procedure was followed until all three products were evaluated. […]

[4] = 300 μM in 8% (w/v-%) sucrose solution
[5] = 250 μM water solution, five subjects

With `C=C1C[C@@]23CC[C@H]4[C@@](C)(CCC[C@@]4(C)C(=O)O[C@@H]4O[C@H](CO)[C@@H](O)[C@H](O)[C@H]4O)[C@@H]2CC[C@]1(O[C@@H]1O[C@H](CO)[C@@H](O)[C@H](O)[C@H]1O[C@@H]1O[C@@H](C)[C@H](O)[C@@H](O)[C@H]1O)C3` [Dulc A, dulcoside A] as the compound, how does the “sweetness of the solution compared with 7% (w/v-%) fructose solution” value (expert taste panel [1]) read?
The value was “achieved that of a 7% (w/v-%) fructose solution”.

And the “sweetness of the solution compared with 7% (w/v-%) sucrose solution” value (expert taste panel [1])?
The value was “achieved that of a 7% (w/v-%) sucrose solution”.

And the off-tastes (expert taste panel [1]; [4])?
The off-tastes was “No off-tastes were detected”.

What about the “sweetness of the solution compared with 11% (w/v-%) sucrose solution” value (expert taste panel [1]; [4]) of the same compound?
The value was “approached that of an 11% (w/v-%) sucrose solution”.

And the “mean sweetness intensity score” value (expert taste panel [1]; 8% (w/v-%) sucrose solution with 300 μM Dulc A)?
The value was 6.3.

What does the source list for `OC[C@H]1O[C@@](CO)(O[C@H]2O[C@H](CO)[C@@H](O)[C@H](O)[C@H]2O)[C@@H](O)[C@@H]1O` [sucrose, α-D-glucopyranosyl-(1→2)-β-D-fructofuranose, reference compound]?
mean sweetness intensity (expert taste panel [2]): about 4; mean sweetness intensity score (expert taste panel [1]; 8% (w/v-%) sucrose solution alone): 5.30 and 5.0; mean sweetness intensity score (expert taste panel [1]; 11% (w/v-%) sucrose solution alone): 6.95 and 6.7

For rebaudioside C [Reb C], which “unpleasant tastes, bitter and licorice” value (panelists; 150, 300 and 600 μM alone) is on record?
Its value is “barely detected”.

What about the intrinsic sweetness (panelists; 150, 300 and 600 μM, scale 0 to 8) of the same compound?
Its intrinsic sweetness is “little or no intrinsic sweetness”.

What about the “unpleasant tastes, bitter and licorice” value (panelists; combined with sugar) of the same compound?
The value was “undetected”.

What about the “forced-choice identification of the sample against water” value (subjects; [5]) of the same compound?
Its value is “All subjects correctly identified the sample containing Reb C”.

And the qualitative taste description (subjects; [5])?
Its qualitative taste description is “Metallic, not sweet; also recorded: Aversive (“Nasty”); also recorded: Slight sweet, astringent; also recorded: Faintly sweet; also recorded: Slight sweet/licorice”.

And the qualitative taste description (subjects; 250 and 300 μM in water, four subjects)?
The qualitative taste description was “Both concentrations bitter and/or licorice”.

And the “sweetness compared with 8% and 11% (w/v-%) sucrose” value (expert taste panel [3]; 300 μM in iced tea with 8% (w/v-%) sucrose)?
The value was “between that of the 8% (w/v-%) solution and that of an 11% (w/v-%) sucrose solution”.

What about the “sweetness compared with 14.29% (w/v-%) HFCS solution (equivalent to 11% sucrose)” value (expert taste panel [3]; 300 μM in iced tea with 10.39% (w/v-%) HFCS) of the same compound?
Its value is “indistinguishable from that of a 14.29% (w/v-%) HFCS solution”.

And the “sweetness of the solution compared with 8% and 11% (w/v-%) sucrose solutions” value (expert taste panel [1]; 150 μM in 8% (w/v-%) sucrose solution)?
Its value is “between that of the 8% (w/v-%) sucrose solution and that of an 11% (w/v-%) sucrose solution”.

What about the “sweetness of the solution compared with 7% (w/v-%) fructose solution” value (expert taste panel [1]) of the same compound?
Its value is “close to that of a 7% (w/v-%) fructose solution”.

And the “sweetness of the solution compared with 7% (w/v-%) sucrose solution” value (expert taste panel [1])?
The value was “indistinguishable from that of a 7% (w/v-%) sucrose solution”.

What about the “sweetness of the solution compared with 11% (w/v-%) sucrose solution” value (expert taste panel [1]; [4]) of the same compound?
Its value is “close to that of an 11% (w/v-%) sucrose solution”.

And the “mean sweetness intensity score” value (expert taste panel [1]; 8% (w/v-%) sucrose solution with 150 μM Reb C)?
Its value is 6.10.
